Measurements as given in ChEMBL document CHEMBL1127842, “The desferrithiocin pharmacophore” (1994).
Several values for one entry are separate records, joined by “and”; a condition that tells them apart may be missing. Identical values can stand only once. Activity calls are given as the source filed them. No cut-off for these calls is given here.

Key:
Rattus norvegicus [1] = species: Rattus norvegicus; assay: Efficiency of iron clearance was determined; format: functional; design: concentration or dose not given beside the values
Rattus norvegicus [2] = assay: Tested for Iron clearance of compound, when administered orally at a dose 150 umol/kg in bile duct cannulated rat; Inactive
Rattus norvegicus [3] = assay: Tested for Iron clearance of compound, when administered subcutaneously at a dose 150 umol/kg in bile duct cannulated rat; format: functional; conditions: in the assay text read “orally” for “subcutaneously”
Rattus norvegicus [4] = species: Rattus norvegicus; assay: Tested for formation constant of the compound; format: functional

Row | Structure (SMILES) | Efficiency (Rattus norvegicus [1]) | Iron clearence (Rattus norvegicus [2]) | Iron clearence (Rattus norvegicus [3]) [µg/kg] | Kf (Rattus norvegicus [4]) [M⁻¹]
1 | CN(O)C(=O)[C@H]1CSC(c2ncccc2O)=N1 | 3.1% | – | – | –
2 | O=C(O)C1CCSC(c2ncccc2O)=N1 (stereo not drawn) | – | inactive | – | –
3 | O=C(O)[C@@H]1CSC(c2ncccc2O)=N1 | 3.9% | – | 166 | –
4 | CC(=O)N(O)CCCCCNC(=O)CCC(=O)N(O)CCCCCNC(=O)CCC(=O)N(O)CCCCCN [DEFEROXAMINE] | 2.8% and 1% | – | – | –
5 | O=C(O)[C@H]1CSC(c2ncccc2O)=N1 | 2.4% | – | 101 | 4e+29
